According to patent US4628104A, “Imidazole ketone derivatives” (G. D. Searle & Co., priority 1985, dated 1986):
Values after ≈ are worked out from the molar mass of the structure shown. Values joined by “and” are separate entries in the source; they are usually repeats but may differ in a detail not shown here. Equal entries are not always repeated. Structures can show the parent of a compound that is named as a salt. Where two headings read alike, the source gives them in different places.

Key:
B. fragilis NCTC 10581 = assay: Anti-anaerobic activity, microtitre plate broth dilution, strain A; assay type: cell-based, Bacteroides fragilis; details: for MBC / MIC: Bacteroides fragilis, NCTC10581, 48 h; for MBC: read-out: MBC (Minimum Bactericidal Concentration); for MIC: 48 hours at 37° C., anaerobic, read-out: MIC (Minimum Inhibitory Concentration)
B. fragilis NCTC 9343 = assay: Anti-anaerobic activity, microtitre plate broth dilution, strain B; assay type: cell-based, Bacteroides fragilis; details: for MBC / MIC: Bacteroides fragilis, NCTC9343, 48 h; for MBC: read-out: MBC (Minimum Bactericidal Concentration); for MIC: read-out: MIC (Minimum Inhibitory Concentration)
B. fragilis NCTC 9344 = assay: Anti-anaerobic activity, microtitre plate broth dilution, strain C; assay type: cell-based; details: Bacteroides fragilis, NCTC9344, 48 h; for MBC: 99.9% reduction in viable count, 48 hours, read-out: MBC (Minimum Bactericidal Concentration); for MIC: 48 hours at 37° C., anaerobic, read-out: MIC (Minimum Inhibitory Concentration)
[1] = tested on: B. fragilis MZ-R ATCC 11295; assay: Anti-anaerobic activity, microtitre plate broth dilution, strain D; assay type: cell-based, Bacteroides fragilis; details: for MBC / MIC: Bacteroides fragilis, ATCC11295, 48 h; for MBC: 99.9% reduction in viable count, 48 hours, read-out: MBC (Minimum Bactericidal Concentration); for MIC: read-out: MIC (Minimum Inhibitory Concentration)
B. fragilis WS-1 = assay: Anti-anaerobic activity, microtitre plate broth dilution, strain E; assay type: cell-based; details: Bacteroides fragilis, WS1, 48 h, 48 hours at 37° C., read-out: MIC (Minimum Inhibitory Concentration)
[2] = tested on: Clostridium perfringens NCTC 523; assay: microbe, parasite or virus in culture; assay type: cell-based; details: NCTC523
[3] = tested on: Clostridium perfringens NCTC 8237; assay: microbe, parasite or virus in culture; assay type: cell-based; details: NCTC8237, strain G
[4] = tested on: Fusobacterium necrophorum ATCC 11295; assay: Anti-anaerobic activity, additional strains, strain J; assay type: cell-based
[5] = tested on: Peptococcus magnus ATCC 29328; assay: Anti-anaerobic activity, additional strains, strain K; assay type: cell-based; details: Finegoldia magna, ATCC29328
[6] = tested on: Peptococcus prevotti ATCC 9321; assay: Anti-anaerobic activity, additional strains, strain L; assay type: cell-based
[7] = tested on: Propionibacterium acnes NCTC 737; assay: Anti-anaerobic activity, additional strains, strain N; assay type: cell-based; details: Cutibacterium acnes, NCTC737
[8] = tested on: Propionibacterium acnes NCTC 7337; assay: Anti-anaerobic activity, additional strains, strain O; assay type: cell-based; details: Cutibacterium acnes, NCTC7337
Clostridium difficile CI = assay: Anti-anaerobic activity, additional strains, strain H; details: Clostridioides difficile
[9] = tested on: Campylobacter fetus ATCC 29428; assay: Anti-anaerobic activity, additional strains, strain I; details: ATCC29428
[10] = tested on: Peptostreptococcus anaerobicus ATCC 27337; assay: Anti-anaerobic activity, additional strains, strain M; details: ATCC27337
[11] = strain A, 99.9% reduction in viable count, 48 hours
[12] = 99.9% reduction in viable count, 48 hours
[13] = strain D, 48 hours at 37° C., anaerobic
[14] = ATCC11295, strain J, read-out: MIC

Row | Structure (SMILES) | MBC (B. fragilis NCTC 10581; [11]) [µg/mL] | MIC (B. fragilis NCTC 10581; strain A) [µg/mL] | MBC (B. fragilis NCTC 9343; [12]) [µg/mL] | MIC (B. fragilis NCTC 9343; 48 hours at 37° C., anaerobic) [µg/mL] | MBC (B. fragilis NCTC 9344) [µg/mL] | MIC (B. fragilis NCTC 9344) [µg/mL] | MBC ([1]; strain D) [µg/mL] | MIC [1, 13] [µg/mL] | MIC (B. fragilis WS-1) [µg/mL] | MIC [2] [µg/mL] | MIC [3] [µg/mL] | MIC [9] [µg/mL] | MIC [10] [µg/mL] | MIC [4, 14] [µg/mL] | MIC ([7]; strain N, read-out: MIC) [µg/mL] | other results
1 | O=C(c1ccc(Cl)cc1Cl)C(Cn1ccnc1)c1ccccc1 (stereo not drawn) [Example 2, 1-(2,4-Dichlorophenyl)-3-(imidazol-1-yl)-2-phenylpropan-1-one] | 0.8 (≈ 2.32 µM) | 0.8 (≈ 2.32 µM) | 0.8 (≈ 2.32 µM) | 0.8 (≈ 2.32 µM) | 0.8 (≈ 2.32 µM) | 0.8 (≈ 2.32 µM) | 0.8 (≈ 2.32 µM) | 0.8 (≈ 2.32 µM) | 0.8 (≈ 2.32 µM) | 0.8 (≈ 2.32 µM) | 0.8 (≈ 2.32 µM) | 0.8 (≈ 2.32 µM) | 0.8 (≈ 2.32 µM) | – | – | MIC ([4]; ATCC11295): 0.8 µg/mL (≈ 2.32 µM); MIC [5]: 0.8 µg/mL (≈ 2.32 µM); MIC [6]: 0.8 µg/mL (≈ 2.32 µM); MIC [7]: 0.8 µg/mL (≈ 2.32 µM); MIC [8]: 0.8 µg/mL (≈ 2.32 µM); MIC (Clostridium difficile CI): 0.8 µg/mL (≈ 2.32 µM)
2 | Cc1ccc(C(Cn2ccnc2)C(=O)c2ccc(Cl)cc2Cl)cc1 (stereo not drawn) [Example 15, 1-(2,4-Dichlorophenyl)-3-(imidazol-1-yl)-2-(4-methylphenyl) propan-1-one] | 0.8 (≈ 2.23 µM) | 0.8 (≈ 2.23 µM) | 0.8 (≈ 2.23 µM) | 0.8 (≈ 2.23 µM) | 0.8 (≈ 2.23 µM) | 0.8 (≈ 2.23 µM) | 0.8 (≈ 2.23 µM) | 0.8 (≈ 2.23 µM) | 0.8 (≈ 2.23 µM) | 0.3 (≈ 0.835 µM) | 0.6 (≈ 1.67 µM) | – | – | 0.3 (≈ 0.835 µM) | 0.6 (≈ 1.67 µM) | MIC ([8]; strain O, read-out: MIC): 0.1 µg/mL (≈ 0.278 µM)
3 | Cc1ccc(C(Cn2cncn2)C(=O)c2ccc(Cl)cc2Cl)cc1 (stereo not drawn) [Example 16, 1-(2,4-Dichlorophenyl)-2-(4-methylphenyl)-3-(1,2,4-triazol-1-yl)propan-1-one hydrochloride] | 3.1 | 3.1 | 3.1 | 3.1 | 3.1 | 3.1 | 15 | 0.8 | 1.5 | – | – | – | – | – | – | –
4 | CCCCCCCC(=O)C(Cn1ccnc1)c1ccc(C)cc1 (stereo not drawn) [Example 17, 1-(Imidazol-1-yl)-2-(4-methylphenyl)decan-3-one hydrochloride] | 100 | 12.5 | 100 | 12.5 | – | – | 100 | 3.1 | 12.5 | – | – | – | – | – | – | –
5 | O=C(c1cc(Cl)cc(Cl)c1)C(Cn1ccnc1)c1ccccc1 (stereo not drawn) [Example 18, 1-(3,5-Dichlorophenyl)-3-(imidazol-1yl)-2-phenyl propan-1-one] | 1.5 (≈ 4.34 µM) | 0.8 (≈ 2.32 µM) | 1.5 (≈ 4.34 µM) | 1.5 (≈ 4.34 µM) | 0.8 (≈ 2.32 µM) | 0.8 (≈ 2.32 µM) | 1.5 (≈ 4.34 µM) | 0.8 (≈ 2.32 µM) | 1.5 (≈ 4.34 µM) | 3.1 (≈ 8.98 µM) | 3.1 (≈ 8.98 µM) | 3.1 (≈ 8.98 µM) | 6.2 (≈ 18 µM) | 6.2 (≈ 18 µM) | 6.2 (≈ 18 µM) | MIC [5]: 3.1 µg/mL (≈ 8.98 µM); MIC [6]: 3.1 µg/mL (≈ 8.98 µM); MIC [8]: 3.1 µg/mL (≈ 8.98 µM); MIC (Clostridium difficile CI; strain H): 1.5 µg/mL (≈ 4.34 µM)
6 | O=C(c1cccnc1)C(Cn1ccnc1)c1ccccc1 (stereo not drawn) [Example 19, 3-(Imidazol-1-yl)-2-phenyl-1-(3-pyridyl)propan-1-one] | 50 (≈ 180 µM) | 12.5 (≈ 45.1 µM) | 50 (≈ 180 µM) | 12.5 (≈ 45.1 µM) | 50 (≈ 180 µM) | 12.5 (≈ 45.1 µM) | 50 (≈ 180 µM) | 12.5 (≈ 45.1 µM) | 6.2 (≈ 22.4 µM) | – | – | – | – | – | – | –
7 | O=C(c1cccnc1)C(Cn1cncn1)c1ccccc1 (stereo not drawn) [Example 20, 2-Phenyl-1-(3-pyridyl)-3-(1,2,4-triazol-1-yl)propan-1-one] | – | 100 (≈ 359 µM) | – | 100 (≈ 359 µM) | – | 100 (≈ 359 µM) | – | 100 (≈ 359 µM) | 100 (≈ 359 µM) | – | – | – | – | – | – | –
8 | O=C(c1ccccn1)C(Cn1ccnc1)c1ccccc1 (stereo not drawn) [Example 21, 3-(Imidazol-1-yl)-2-phenyl-1-(2-pyridyl)propan-1-one] | 12.5 (≈ 45.1 µM) | 12.5 (≈ 45.1 µM) | 25 (≈ 90.1 µM) | 25 (≈ 90.1 µM) | 12.5 (≈ 45.1 µM) | 6.2 (≈ 22.4 µM) | 6.2 (≈ 22.4 µM) | 6.2 (≈ 22.4 µM) | 25 (≈ 90.1 µM) | – | – | – | – | – | – | –
9 | CC(C)(C)C(Cn1ccnc1)C(=O)c1ccc(Cl)cc1Cl (stereo not drawn) [Example 22, 1-(2,4-Dichlorophenyl)-3,3-dimethyl-2-(imidazol-1-ylmethyl)butan-1-one] | – | 50 (≈ 154 µM) | – | 50 (≈ 154 µM) | – | 50 (≈ 154 µM) | – | 50 (≈ 154 µM) | 100 (≈ 307 µM) | – | – | – | – | – | – | –
10 | O=C(c1ccc(Cl)cc1Cl)C(Cn1cncn1)c1ccccc1 (stereo not drawn) [Example 23, 1-(2,4-Dichlorophenyl)-2-phenyl-3-(1,2,4-triazol-1-yl) propan-1-one] | 0.8 (≈ 2.31 µM) | 0.8 (≈ 2.31 µM) | 0.8 (≈ 2.31 µM) | 0.8 (≈ 2.31 µM) | 0.8 (≈ 2.31 µM) | 0.8 (≈ 2.31 µM) | 0.8 (≈ 2.31 µM) | 0.8 (≈ 2.31 µM) | 0.8 (≈ 2.31 µM) | – | – | – | – | – | – | –
11 | CSc1nccn1CC(C(=O)c1ccc(Cl)cc1Cl)c1ccccc1 (stereo not drawn) [Example 24, 1-(2,4-Dichlorophenyl)-2-phenyl-3-(2-thiomethylimidazol-1-yl)propan-1-one] | 100 (≈ 256 µM) | 25 (≈ 63.9 µM) | 100 (≈ 256 µM) | 25 (≈ 63.9 µM) | 100 (≈ 256 µM) | 25 (≈ 63.9 µM) | 100 (≈ 256 µM) | 25 (≈ 63.9 µM) | 50 (≈ 128 µM) | – | – | – | – | – | – | –
12 | O=C(Cc1ccccc1)C(Cn1ccnc1)c1ccccc1 (stereo not drawn) [Example 25, 1,3-Diphenyl-4-(imidazol-1-yl)butan-2-one] | – | 25 (≈ 86.1 µM) | – | 25 (≈ 86.1 µM) | – | 25 (≈ 86.1 µM) | – | 12.5 (≈ 43 µM) | 25 (≈ 86.1 µM) | 0.8 (≈ 2.76 µM) | 0.8 (≈ 2.76 µM) | 25 (≈ 86.1 µM) | 1.5 (≈ 5.17 µM) | 100 (≈ 344 µM) | 50 (≈ 172 µM) | MIC ([5]; strain K, read-out: MIC): 6.2 µg/mL (≈ 21.4 µM); MIC [6]: 0.8 µg/mL (≈ 2.76 µM); MIC (Clostridium difficile CI; strain H): 25 µg/mL (≈ 86.1 µM)
13 | Cc1ncc([N+](=O)[O-])n1CCO [Metronidazole, reference compound] | 0.8 (≈ 4.67 µM) | – | 0.8 (≈ 4.67 µM) | 0.8 (≈ 4.67 µM) | – | – | – | – | – | 0.08 (≈ 0.467 µM) | – | 10 (≈ 58.4 µM) | 0.3 (≈ 1.75 µM) | 10 (≈ 58.4 µM) | 10 (≈ 58.4 µM) | MBC (B. fragilis NCTC 10581): 1.2 µg/mL (≈ 7.01 µM); MBC (Minimum Bactericidal Concentration) (B. fragilis NCTC 10581; [11]): 1.2 µg/mL and 0.6 µg/mL; MBC (Minimum Bactericidal Concentration) (B. fragilis NCTC 9343; [12]): 1.2 µg/mL and 0.6 µg/mL; MIC (Minimum Inhibitory Concentration) (B. fragilis NCTC 9343; 48 hours at 37° C., anaerobic): 0.6 µg/mL and 1.2 µg/mL; MIC [1]: 10 µg/mL (≈ 58.4 µM); MIC (Minimum Inhibitory Concentration) [1, 13]: 10.9 µg/mL and 10.0 µg/mL and 10 µg/mL; MIC ([5]; strain K, read-out: MIC): 0.6 µg/mL (≈ 3.51 µM); MIC ([8]; strain O, read-out: MIC): 10 µg/mL (≈ 58.4 µM)
